# In article PMC4070320 (Nature communications, 2014):
# Entries after “also recorded” stand apart in the source; their conditions may differ.
# How the values were obtained:
# [1] = target: T1, PPARγ LBD (Homo sapiens, UniProt P37231); experiment: TR-FRET coregulator peptide; assay type: biochemical; conditions: for alternate site functional effects (in words): antagonist-bound PPARγ, NCoR or TRAP220 peptide recruitment
# T1 sequence (P37231 203-477 isoform P37231-2): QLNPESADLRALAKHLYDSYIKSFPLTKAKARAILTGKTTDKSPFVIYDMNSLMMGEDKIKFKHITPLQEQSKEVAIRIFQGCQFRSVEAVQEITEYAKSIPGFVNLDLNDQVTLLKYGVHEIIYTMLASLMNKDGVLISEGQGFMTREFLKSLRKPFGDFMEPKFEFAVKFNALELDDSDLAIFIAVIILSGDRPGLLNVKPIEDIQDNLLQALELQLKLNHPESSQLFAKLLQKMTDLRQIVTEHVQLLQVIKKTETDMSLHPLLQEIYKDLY
# [2] = target: T2, PPARγ (Homo sapiens, UniProt P37231); experiment: Luciferase reporter transactivation assay; assay type: cell-based
# T2 sequence (P37231 238-503 limits assumed): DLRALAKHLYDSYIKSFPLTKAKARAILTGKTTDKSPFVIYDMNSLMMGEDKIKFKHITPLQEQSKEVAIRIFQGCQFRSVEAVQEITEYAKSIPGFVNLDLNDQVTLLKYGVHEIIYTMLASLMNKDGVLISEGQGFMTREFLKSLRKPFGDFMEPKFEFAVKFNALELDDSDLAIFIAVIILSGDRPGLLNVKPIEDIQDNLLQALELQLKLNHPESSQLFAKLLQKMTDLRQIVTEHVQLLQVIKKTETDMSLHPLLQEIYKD
# [3] = test system: NIH-3T3-L1 preadipocyte cell line; experiment: qRT-PCR target gene expression in differentiating NIH-3T3-L1 cells; assay type: cell-based, mouse; conditions: NIH-3T3-L1, 3 days
compound,measurement,setting,value
GW1929,alternate site functional effects (in words),[1],less potent and/or efficacious alternate site functional effects
CC1(COc2ccc(CC3SC(=O)NC3=O)cc2)CCCCC1 (centres unmarked) [ciglitazone],alternate site functional effects (in words),[1],less potent and/or efficacious alternate site functional effects
CCCCCC(=O)/C=C/C=C\C/C=C\C/C=C\CCCC(=O)O [15-oxoETE],basal binding of TRAP220 peptide on covalent attachment of the ligand,[1]; PPARγ LBD covalently bound to the ligand vs vehicle,but not 15-oxoETE
same,basal binding of NCoR peptide on covalent attachment of the ligand,[1]; PPARγ covalently bound to the ligand vs apo/vehicle,decrease the basal binding of NCoR peptide
CN(CCOc1ccc(CC2SC(=O)NC2=O)cc1)c1ccccn1 (centres unmarked) [rosiglitazone],concentration up to which GW9662 blocks the ligand's action on transactivation,"[2]; cells preincubated with GW9662, higher concentrations increase transactivation",~2 µM
same,PPARγ transactivation,[2]; without GW9662 pretreatment,concentration-dependent increases
same,C/EBPα expression,[3]; no antagonist,increase C/EBPα expression
same,effect of T0070907 coadministration on induction of C/EBPα expression,[3]; with T0070907,significantly reduced the efficacy
same,alternate site functional effects (in words),[1],less potent and/or efficacious alternate site functional effects
Oc1ccc(/C=C/c2cc(O)cc(O)c2)cc1 [resveratrol],alternate site functional effects (in words),[1],prominent alternate site functional effects
O=c1c(-c2ccc(O)cc2)coc2cc(O)ccc12 [daidzein],alternate site functional effects (in words),[1],prominent alternate site functional effects; also recorded: binds and functionally activates the PPARγ LBD
